Structures can show the parent of a compound that is named as a salt. Where two headings read alike, the source gives them in different places.
Legend:
[1] = tested on: interferon regulatory factor (IRF) pathway in THP-1 dual cells; assay: THP-1 Dual reporter assay, IRF pathway (luciferase); format: cell-based; details: Homo sapiens, THP1-Dual, read-out: THP1 Dual EC50 (μM) IRF
Experimental: (§1) Compounds of the present invention were tested for their activity using THP-1 dual cells (Invivogen, cat no. thpd-nfis) allowing for simultaneous study of NF-κB pathway and the interferon regulatory factor (IRF) pathway. THP-1 dual cells contain luciferase reporter gene under the control of an ISG54 (interferon-stimulated gene) minimal promoter in conjunction with five interferon-stimulated response elements and a secreted embryonic alkaline phosphatase reporter gene under the control an IFN (interferon)-β minimal promoter fused to five copies of the NF-κB consensus transcriptional response element with three copies of the c-Rel binding site. Following 18 h of stimulation with STING agonist, medium was collected and transferred onto fresh cell culture plate. To verify activity of the IRF pathway, luminescence activity was measured with standard laboratory plate reader immediately after addition 10 μl of the medium to 40 or 50 μl of luminescence reagent (Invivogen, cat. No. rep-qlc2). To verify activity of NF-κB pathway, 10 or 20 μl of the medium was mixed with 80 μl of a detection medium (Invivogen, cat. No. rep-qb2) and incubated for 1 or 2 hours at 37° C. in a humidified atmosphere containing 5% CO2. Next, absorbance at 630 or 655 nm was recorded using standard laboratory plate reader.

[2] = tested on: NF-κB pathway in THP-1 dual cells; assay: THP-1 Dual reporter assay, NF-κB pathway (SEAP); format: cell-based; details: Homo sapiens, THP1-Dual, read-out: THP1 Dual EC50 (μM) NFkB
Experimental: as §1

[3] = 18 h stimulation, absorbance at 630 or 655 nm

Structure (SMILES) | EC50 ([1]; 18 h stimulation, luminescence) [µM] | EC50 [2, 3] [µM] | EC50 ([1]; 18 h) [µM] | EC50 ([2]; 18 h) [µM]
Cc1cc(CN(Cc2cn(C3CC3)c3cc(OCCO)c(F)cc3c2=O)[C@H]2CCCN(c3ccc(C4CC4)nc3)C2)ccn1 [Example 100, 1-cyclopropyl-3-({[(3S)-1-(6-cyclopropylpyridin-3-yl)piperidin-3-yl][(2-methylpyridin-4-yl)methyl]amino}methyl)-6-fluoro-7-(2-hydroxyethoxy)-1,4-dihydroquinolin-4-one] | < 1 | < 1 | – | –
Cc1cc(CN(Cc2cn(C3CC3)c3cc(N4CC[C@@H](CO)C4)c(F)cc3c2=O)[C@H]2CCCN(c3cnccn3)C2)ccn1 [Example 91, 1-cyclopropyl-6-fluoro-7-[(3R)-3-(hydroxymethyl)pyrrolidin-1-yl]-3-({[(2-methylpyridin-4-yl)methyl][(3S)-1-(pyrazin-2-yl)piperidin-3-yl]amino}methyl)-1,4-dihydroquinolin-4-one hydrochloride] | < 1 | < 1 | – | –
Cc1ccc(N2CCC[C@H](N(Cc3ccnc(C)c3)Cc3cn(C(C)C)c4nc(N5CC[C@@H](O)C5)c(F)cc4c3=O)C2)cn1 [Example 42, 6-fluoro-7-[(3R)-3-hydroxypyrrolidin-1-yl]-3-({[(3S)-1-(6-methylpyridin-3-yl)piperidin-3-yl][(2-methylpyridin-4-yl)methyl]amino}methyl)-1-(propan-2-yl)-1,4-dihydro-1,8-naphthyridin-4-one] | – | – | < 1 | < 1
Cc1ccc(N2CCC[C@H](N(Cc3ccnc(C)c3)Cc3cn(C4CC4)c4cc(C5C[C@@H](O)CN5)ccc4c3=O)C2)cn1 (stereo partly drawn) [Example 76, 1-cyclopropyl-7-[(4R)-4-hydroxypyrrolidin-2-yl]-3-({[(3S)-1-(6-methylpyridin-3-yl)piperidin-3-yl][(2-methylpyridin-4-yl)methyl]amino}methyl)-1,4-dihydroquinolin-4-one] | 1 to 10 | 1 to 10 | – | –
Cc1cc(CN(Cc2cn(C3CC3)c3cc(OCCO)c(F)cc3c2=O)[C@H]2C[C@H](F)CN(c3cnccn3)C2)ccn1 [Example 95, 1-cyclopropyl-6-fluoro-3-({[(3S,5S)-5-fluoro-1-(pyrazin-2-yl)piperidin-3-yl][(2-methylpyridin-4-yl)methyl]amino}methyl)-7-(2-hydroxyethoxy)-1,4-dihydroquinolin-4-one hydrochloride] | < 1 | < 1 | – | –
Cc1cc(CN(Cc2cn(C)c3ccccc3c2=O)[C@H]2CCCN(c3ccc(CCO)nc3)C2)ccn1 [Example 43, 3-({[(3S)-1-[6-(2-hydroxyethyl)pyridin-3-yl]piperidin-3-yl][(2-methylpyridin-4-yl)methyl]amino}methyl)-1-methyl-1,4-dihydroquinolin-4-one] | – | – | 1 to 10 | 1 to 10
Cc1ccc(N2CCC[C@H](N(Cc3ccnc(C)c3)Cc3cn(C4CC4)c4cc(OCCN(C)C(=O)COCCOCCN)c(F)cc4c3=O)C2)cn1 [Example 11A, 2-[2-(2-aminoethoxy)ethoxy]-N-(2-{[1-cyclopropyl-6-fluoro-3-({[(3S)-1-(6-methylpyridin-3-yl)piperidin-3-yl][(2-methylpyridin-4-yl)methyl]amino}methyl)-4-oxo-1,4-dihydroquinolin-7-yl]oxy}ethyl)-N-methylacetamide] | 1 to 10 | 1 to 10 | – | –
Cc1cc(CN(Cc2cn(C3CC3)c3cc(Cl)c(F)cc3c2=O)[C@H]2CCCN(c3cnccc3CO)C2)ccn1 [Example 74, 7-chloro-1-cyclopropyl-6-fluoro-3-({[(3S)-1-[4-(hydroxymethyl)pyridin-3-yl]piperidin-3-yl][(2-methylpyridin-4-yl)methyl]amino}methyl)-1,4-dihydroquinolin-4-one] | 1 to 10 | 1 to 10 | – | –
Cc1cc(CN(Cc2cn(C3CC3)c3cc(OCCO)c(F)cc3c2=O)[C@H]2CCCN(c3cncc(F)c3)C2)ccn1 [Example 90, 1-cyclopropyl-6-fluoro-3-({[(3S)-1-(5-fluoropyridin-3-yl)piperidin-3-yl][(2-methylpyridin-4-yl)methyl]amino}methyl)-7-(2-hydroxyethoxy)-1,4-dihydroquinolin-4-one hydrochloride] | < 1 | < 1 | – | –
C#CCOCCOCCOCCOCCOCCC(=O)Nc1ccc(CNC(=O)OCCOc2cc3c(cc2F)c(=O)c(CN(Cc2ccnc(C)c2)[C@H]2CCCN(c4cccnc4)C2)cn3C2CC2)cc1 [Example 84A, 2-{[1-cyclopropyl-6-fluoro-3-({[(2-methylpyridin-4-yl)methyl][(3S)-1-(pyridin-3-yl)piperidin-3-yl]amino}methyl)-4-oxo-1,4-dihydroquinolin-7-yl]oxy}ethyl N-{[4-(4,7,10,13,16-pentaoxanonadec-18-ynamido)phenyl]methyl}carbamate] | < 1 | < 1 | – | –
Cc1cc(CN(Cc2cn(C3CC3)c3cc(N4CC[C@H](CO)C4)c(F)cc3c2=O)[C@H]2CCCN(c3cccnc3)C2)ccn1 [Example 87, 1-cyclopropyl-6-fluoro-7-[(3S)-3-(hydroxymethyl)pyrrolidin-1-yl]-3-({[(2-methylpyridin-4-yl)methyl][(3S)-1-(pyridin-3-yl)piperidin-3-yl]amino}methyl)-1,4-dihydroquinolin-4-one hydrochloride] | < 1 | < 1 | – | –
Cc1ccc(N2CCC[C@H](N(Cc3ccnc(C)c3)Cc3cn(C4CC4)c4cc(N5CC[C@@H](N(C)CCOCCOCCOCCOCCNC(=O)OC(C)(C)C)C5)c(F)cc4c3=O)C2)cn1 [Example 55B, tert-Butyl N-{2-[(3R)-1-[1-cyclopropyl-6-fluoro-3-({[(3S)-1-(6-methylpyridin-3-yl)piperidin-3-yl][(2-methylpyridin-4-yl)methyl]amino}methyl)-4-oxo-1,4-dihydroquinolin-7-yl]pyrrolidin-3-yl]-5,8,11,14-tetraoxa-2-azahexadecan-16-yl}carbamate] | < 1 | < 1 | – | –
Cc1ccc(N2CCC[C@H](N(Cc3ccnc(C)c3)Cc3cn(C4CC4)c4cc(N5CC[C@H](O)C5)c(F)cc4c3=O)C2)cn1 [Example 39, 1-cyclopropyl-6-fluoro-7-[(3S)-3-hydroxypyrrolidin-1-yl]-3-({[(3S)-1-(6-methylpyridin-3-yl)piperidin-3-yl][(2-methylpyridin-4-yl)methyl]amino}methyl)-1,4-dihydroquinolin-4-one hydrochloride] | < 1 | < 1 | – | –
Cc1ccc(N2CCC[C@H](N(Cc3ccnc(C)c3)Cc3cn(C4CC4)c4cc(N5CCC(N(C)C(=O)OCc6ccc(NC(=O)[C@H](CCCNC(N)=O)NC(=O)[C@@H](NC(=O)CCOCCOCCOCCN=[N+]=[N-])C(C)C)cc6)CC5)c(F)cc4c3=O)C2)cn1 [Example 19A] | 1 to 10 | 1 to 10 | – | –
Cc1ccc(N2CCC[C@H](N(Cc3ccnc(C)c3)Cc3cn(C4CC4)c4cc(OCCN(C)C(=O)CCOCCOCCOCCC(=O)O)c(F)cc4c3=O)C2)cn1 [Example 11G, 3-[2-(2-{2-[(2-{[1-cyclopropyl-6-fluoro-3-({[(3S)-1-(6-methylpyridin-3-yl)piperidin-3-yl][(2-methylpyridin-4-yl)methyl]amino}methyl)-4-oxo-1,4-dihydroquinolin-7-yl]oxy}ethyl)(methyl)carbamoyl]ethoxy}ethoxy)ethoxy]propanoic acid formate] | 1 to 10 | 1 to 10 | – | –
Cc1cc(CN(Cc2cn(C)c3ccccc3c2=O)[C@H]2CCCN(c3ccc(OCCO)nc3)C2)ccn1 [Example 101, 3-({[(3S)-1-[6-(2-hydroxyethoxy)pyridin-3-yl]piperidin-3-yl][(2-methylpyridin-4-yl)methyl]amino}methyl)-1-methyl-1,4-dihydroquinolin-4-one] | 1 to 10 | 1 to 10 | – | –
Cc1cc(CN(Cc2cn(C3CC3)c3cc(OCCO)c(F)cc3c2=O)[C@H]2CCCN(c3ccc(Cl)nc3)C2)ccn1 [Example 97, 3-({[(3S)-1-(6-chloropyridin-3-yl)piperidin-3-yl][(2-methylpyridin-4-yl)methyl]amino}methyl)-1-cyclopropyl-6-fluoro-7-(2-hydroxyethoxy)-1,4-dihydroquinolin-4-one hydrochloride] | – | – | < 1 | < 1
Cc1cc(CN(Cc2cn(C3CC3)c3cc(Cl)c(F)cc3c2=O)[C@H]2CCCN(c3ccc(C(=O)O)nc3)C2)ccn1 [Example 102] | 1 to 10 | 1 to 10 | – | –
C#CCOCCOCCOCCOCCOCCC(=O)Nc1ccc(COC(=O)N(C)[C@H]2CCN(c3cc4c(cc3F)c(=O)c(CN(Cc3ccnc(C)c3)[C@H]3CCCN(c5ccc(C)nc5)C3)cn4C3CC3)C2)cc1 [Example 58A, [4-(4,7,10,13,16-pentaoxanonadec-18-ynamido)phenyl]methyl N-[(3S)-1-[1-cyclopropyl-6-fluoro-3-({[(3S)-1-(6-methylpyridin-3-yl)piperidin-3-yl][(2-methylpyridin-4-yl)methyl]amino}methyl)-4-oxo-1,4-dihydroquinolin-7-yl]pyrrolidin-3-yl]-N-methylcarbamate] | < 1 | < 1 | – | –

— patent publication US12643879B2, “Functionalized heterocyclic compounds as modulators of stimulator of interferon genes (STING)” (RYVU THERAPEUTICS S.A., priority 2019, dated 2026)
